Measured values reported in patent EP2209789B1, “C[…] INDOLOB[…] NS5B INHIBITORS” (Bristol-Myers Squibb Company, priority 2007, dated 2009).
pEC50, pIC50: −log10 of the molar value.

Legend:
HCV replicon = HCV replicon FRET / luciferase assay; type: cell-based
Protocol: FRET Assay Preparation. The HCV FRET screening assay was performed in 96-well cell culture plates. The FRET peptide (Anaspec, Inc.) (Taliani et al., Anal. Biochem. 1996, 240, 60-67) contains a fluorescence donor, EDANS, near one end of the peptide and an acceptor, DABCYL, near the other end. The fluorescence of the peptide is quenched by […] resonance energy transfer (RET) between the donor and the acceptor, but as the NS3 protease cleaves the peptide the products are released from RET quenching and the fluorescence of the donor becomes apparent. The assay reagent was made as follows: 5X cell Luciferase cell culture lysis reagent from Promega (#E153A) diluted to 1X with dH2O, NaCl added to 150 mM final, the FRET peptide diluted to 20 µM final from a 2 mM stock.
To prepare plates, HCV replicon cells, with or without a Renilla luciferase reporter gene, were trypsinized and plated in a 96-well plate with titrated test compounds added in columns 3 through 12; columns 1 and 2 contained a control compound (HCV control inhibitor), and the bottom row contained cells with DMSO only. The plates were then placed in a CO2 incubator at 37 °C.
Assays. Subsequent to addition of the test compounds described above (FRET Assay Preparation), at various times the plate was removed and Alamar blue solution (Trek Diagnostics, #00-100) was added to measure cellular toxicity. After reading in a Cytoflour 4000 instrument (PE Biosystems), plates were rinsed with PBS and then used for FRET assay by the addition of 30 ul of the FRET peptide assay reagent described above (FRET Assay Preparation) per well. The plate was then placed into the Cytoflour 4000 instrument which had been set to 340 excite/490 emission, automatic mode for up to 20 cycles and the plate read in a kinetic mode. Typically, the signal to noise using an endpoint analysis after the reads was at least three-fold. Alternatively, after Alamar blue reading, plates were rinsed with PBS, then used for luciferase assay using the Promega Dual-Glo Luciferase Assay System or the Promega EnduRen Live Cell Substrate assay.
Compound analysis was performed by quantification of the relative HCV replicon inhibition and the relative cytotoxicity values. To calculate cytoxicity values, the average Alamar Blue fluorescence signals from the control wells were set as 100% non-toxic. The individual signals in each of the compound test wells were then divided by the average control signal and multiplied by 100% to determine […]. To calculate the HCV replicon inhibition values, an average background value was obtained from the two wells containing the highest amount of HCV control inhibitor at the end of the assay period. These numbers were similar to those obtained from naïve Huh-7 cells. The background numbers were then subtracted from the average signal obtained from the control wells and this number was used as 100% activity. The individual signals in each of the compound test wells were then divided by the averaged control values after background subtraction and multiplied by 100% to determine percent activity. […] The two numbers generated for the compound plate, percent cytoxicity and percent activity, were used to determine compounds of interest for further analysis.

HCV NS5B = molecular target: T1, HCV NS5B (Hepatitis C virus genotype 1b, UniProt Q9WMX2); test: HCV NS5B RdRp enzyme assay (standard or modified); type: biochemical; conditions: HCV RdRp genotype 1b enzyme; not stated whether standard or modified assay
T1 construct: The cDNA encoding the NS5B protein of HCV, genotype 1b; made in house; host or cells: E. coli BL21(DE3)
T1 sequence (Q9WMX2 2420-2992): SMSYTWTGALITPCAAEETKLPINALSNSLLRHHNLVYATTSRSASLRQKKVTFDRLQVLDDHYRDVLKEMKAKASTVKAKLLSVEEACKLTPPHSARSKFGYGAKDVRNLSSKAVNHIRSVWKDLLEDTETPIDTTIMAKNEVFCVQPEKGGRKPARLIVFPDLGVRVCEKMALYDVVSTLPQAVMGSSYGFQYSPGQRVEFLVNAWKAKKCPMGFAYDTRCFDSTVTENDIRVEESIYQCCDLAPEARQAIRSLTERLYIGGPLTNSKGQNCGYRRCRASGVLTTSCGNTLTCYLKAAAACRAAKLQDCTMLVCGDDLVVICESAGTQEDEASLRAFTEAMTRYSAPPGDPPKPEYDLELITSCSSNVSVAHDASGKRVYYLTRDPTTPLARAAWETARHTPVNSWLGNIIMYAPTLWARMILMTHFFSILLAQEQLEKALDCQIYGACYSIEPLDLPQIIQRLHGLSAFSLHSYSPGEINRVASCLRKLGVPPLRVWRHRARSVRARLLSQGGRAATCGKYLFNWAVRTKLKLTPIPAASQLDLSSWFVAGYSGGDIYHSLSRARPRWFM
Protocol: HCV NS5B RdRp cloning, expression, and purification. The cDNA encoding the NS5B protein of HCV, genotype 1b, was cloned into the pET21a expression vector. The protein was expressed with an 18 amino acid C-terminal truncation to enhance the solubility. The E. coli competent cell line BL21(DE3) was used for expression of the protein. Cultures were grown at 37 °C for ~ 4 hours until the cultures reached an optical density of 2.0 at 600 nm. The cultures were cooled to 20 °C and induced with 1 mM IPTG. Fresh ampicillin was added to a final concentration of 50 µg/ml and the cells were grown overnight at 20 °C.
The lysis buffer consisted of 20 mM Tris-HCl, pH 7.4, 500 mM NaCl, 0.5% triton X-100, 1 mM DTT, 1 mM EDTA, 20% glycerol, 0.5 mg/ml lysozyme, 10 mM MgCl2, 15 ug/ml deoxyribonuclease I, and Complete TM protease inhibitor tablets (Roche). After addition of the lysis buffer, frozen cell pellets were resuspended using a tissue homogenizer. To reduce the viscosity of the sample, aliquots of the lysate were sonicated on ice using a microtip attached to a Branson sonicator. The sonicated lysate was centrifuged at 100,000 x g for Ihr at 4 °C and filtered through a 0.2 µm filter unit (Coming).
The protein was purified using two sequential chromatography steps: Heparin sepharose CL-6B and polyU sepharose 4B (Pharmacia). The chromatography buffers were identical to the lysis buffer but contained no lysozyme, deoxyribonuclease I, MgCl2 or protease inhibitor and the NaCl concentration of the buffer was adjusted according to the requirements for charging the protein onto the column. Each column was eluted with a NaCl gradient which varied in length from 5-50 column volumes depending on the column type. […] The enzyme was aliquoted and stored at -80 °C.
Standard HCV NSSB RdRp enzyme assay. HCV RdRp genotype 1b assays were run in a final volume of 60 µl in 96 well plates (Coming 3600). The assay buffer is composed of 20 mM Hepes, pH 7.5, 2.5 mM KCl, 2.5 mM MgCl2, 1 mM DTT, 1.6 U RNAse inhibitor (Promega N2515), 0.01 mg/ml BSA (Sigma B6917), and 2 % glycerol. All compounds were serially diluted (3-fold) in DMSO and diluted further in water such that the final concentration of DMSO in the assay was 2%. HCV RdRp genotype 1b enzyme was used at a final concentration of 28 nM. A polyA template was used at 6 nM, and a biotinylated oligo-dT12 primer was used at 180 nM final concentration. Template was obtained commercially (Amersham 27-4110). Biotinylated primer was prepared by Sigma Genosys. 3H-UTP was used at 0.6 µCi (0.29 µM total UTP). Reactions were initiated by the addition of enzyme, incubated at 30 °C for 60 min, and stopped by adding 25 µl of 50 mM EDTA containing SPA beads (4 µg/µl, Amersham RPNQ 0007). Plates were read on a Packard Top Count NXT after >1hr incubation at room temperature.
Modified HCV NS5B RdRp enzyme assay. A modified enzyme assay was performed essentially as described for the standard enzyme assay except for the following: The biotinylated oligo dT12 primer was precaptured on streptavidin-coated SPA beads by mixing primer and beads in assay buffer and incubating at room temperature for one hour. Unbound primer was removed after centrifugation. The primer-bound beads were resuspended in 20 mM Hepes buffer, pH 7.5 and used in the assay at final concentrations of 20 nM primer and 0.67 µg/µl beads. Order of addition in the assay: enzyme (1.75 nM) was added to diluted compound followed by the addition of a mixture of template (0.36 nM), 3H-UTP (0.6 µCi, 0.29 µM), and primer-bound beads, to initiate the reaction; concentrations given are final. Reactions were allowed to proceed for 4 hours at 30° C.
IC50 values for compounds were determined using seven different [I].

[1] = HCV replicon cells, 50% reduction in FRET or luciferase activity

SMILES	pEC50 (HCV replicon; Hepatitis C virus)	pIC50 (HCV NS5B)	pEC50 (HCV replicon; [1])
CCN(CC)C(=O)N1CC2CCC(C1)N2C(=O)C12CC1c1cc(OC)ccc1-c1c(C3CCCCC3)c3ccc(C(=O)NS(=O)(=O)C4CC4)cc3n1C2 (stereo not shown)	6.30 to 9.00	–	–
CCN(CC)C(=O)N1CC2CCC(C1)N2C(=O)C12CC1c1cc(OC)ccc1-c1c(C3CCCCC3)c3ccc(C(=O)NS(=O)(=O)N4CCN(C)CC4)cc3n1C2 (stereo not shown)	6.30 to 9.00	–	–
COc1ccc2c(c1)[C@H]1C[C@@]1(C(=O)N1C3CCC1CN(C)C3)Cn1c-2c(C2CCCCC2)c2ccc(C(=O)NS(=O)(=O)C(C)C)cc21	6.30 to 9.00	–	–
COc1ccc2c(c1)C1CC1(C(=O)N1C3CCC1CN(C)C3)Cn1c-2c(C2CCCCC2)c2ccc(C(=O)NS(=O)(=O)C(C)C)cc21 (stereo not shown)	6.30 to 9.00	–	–
COc1ccc2c(c1)C1CC1(C(=O)N1C3CCC1CN(C)C3)Cn1c-2c(C2CCCCC2)c2ccc(C(=O)NS(=O)(=O)C3CCCC3)cc21 (stereo not shown)	6.30 to 9.00	6.30 to 9.00	–
COc1ccc2c(c1)C1CC1(C(=O)N1C3CCC1CN(C)C3)Cn1c-2c(C2CCCCC2)c2ccc(C(=O)NS(=O)(=O)C3CCCCC3)cc21 (stereo not shown)	6.30 to 9.00	–	–
COc1ccc2c(c1)C1CC1(C(=O)N1C3CCC1CN(C)C3)Cn1c-2c(C2CCCCC2)c2ccc(C(=O)NS(=O)(=O)CC(C)C)cc21 (stereo not shown)	6.30 to 9.00	6.30 to 9.00	–
CCCS(=O)(=O)NC(=O)c1ccc2c(C3CCCCC3)c3n(c2c1)CC1(C(=O)N2C4CCC2CN(C)C4)CC1c1cc(OC)ccc1-3 (stereo not shown)	6.30 to 9.00	6.30 to 9.00	–
COc1ccc2c(c1)C1CC1(C(=O)N1C3CCC1CN(C)C3)Cn1c-2c(C2CCCCC2)c2ccc(C(=O)NS(=O)(=O)C(C)(C)C)cc21 (stereo not shown)	6.30 to 9.00	6.30 to 9.00	–
CCCCS(=O)(=O)NC(=O)c1ccc2c(C3CCCCC3)c3n(c2c1)CC1(C(=O)N2C4CCC2CN(C)C4)CC1c1cc(OC)ccc1-3 (stereo not shown)	6.30 to 9.00	–	–
CN1CC2CCC(C1)N2C(=O)C12CC1c1ccccc1-c1c(C3CCCCC3)c3ccc(C(=O)NS(=O)(=O)N(C)C)cc3n1C2 (stereo not shown)	6.30 to 9.00	6.30 to 9.00	–
CC(C)S(=O)(=O)NC(=O)c1ccc2c(C3CCCCC3)c3n(c2c1)CC1(C(=O)N2C4CCC2CN(C)C4)CC1c1ccccc1-3 (stereo not shown)	6.30 to 9.00	6.30 to 9.00	–
CCC(CC)S(=O)(=O)NC(=O)c1ccc2c(C3CCCCC3)c3n(c2c1)CC1(C(=O)N2C4CCC2CN(C)C4)CC1c1cc(OC)ccc1-3 (stereo not shown)	< 6.96	–	–
COc1ccc2c(c1)[C@@H]1C[C@]1(C(=O)N1C3CCC1CN(C)C3)Cn1c-2c(C2CCCCC2)c2ccc(C(=O)NS(=O)(=O)CC(C)C)cc21	6.30 to 9.00	6.30 to 9.00	–
COc1ccc2c(c1)C1CC1(C(=O)N1C3CCC1CN(C)C3)Cn1c-2c(C2CCCCC2)c2ccc(C(=O)NS(=O)(=O)CC(F)F)cc21 (stereo not shown)	6.30 to 9.00	–	–
COc1ccc2c(c1)C1CC1(C(=O)N1C3CCC1CN(C)C3)Cn1c-2c(C2CCCCC2)c2ccc(C(=O)NS(=O)(=O)C(F)(F)F)cc21 (stereo not shown)	6.30 to 9.00	–	–
COc1ccc2c(c1)C1CC1(C(=O)N1C3CCC1CN(C)C3)Cn1c-2c(C2CCCCC2)c2ccc(C(=O)NS(=O)(=O)CCC(F)(F)F)cc21 (stereo not shown)	6.30 to 9.00	6.30 to 9.00	–
COc1ccc2c(c1)C1CC1(C(=O)N1C3CCC1CN(C)C3)Cn1c-2c(C2CCCCC2)c2ccc(C(=O)NS(=O)(=O)CC(F)(F)F)cc21 (stereo not shown)	6.30 to 9.00	6.30 to 9.00	–
COc1ccc2c(c1)C1CC1(C(=O)N1C3CCC1CN(C)C3)Cn1c-2c(C2CCCCC2)c2ccc(C(=O)NS(=O)(=O)C3CCC3)cc21 (stereo not shown) [drawing 40]	–	6.30 to 9.00	6.30 to 9.00
CCC(C)S(=O)(=O)NC(=O)c1ccc2c(C3CCCCC3)c3n(c2c1)CC1(C(=O)N2C4CCC2CN(C)C4)CC1c1cc(OC)ccc1-3 (stereo not shown) [drawing 45]	6.30 to 9.00	6.30 to 9.00	–
COc1ccc2c(c1)C1CC1(C(=O)N1C3CCC1CN(C)C3)Cn1c-2c(C2CCCCC2)c2ccc(C(=O)NS(=O)(=O)C3CCC3)cc21 (stereo not shown) [drawing 51]	6.30 to 9.00	–	–
CCC(C)S(=O)(=O)NC(=O)c1ccc2c(C3CCCCC3)c3n(c2c1)CC1(C(=O)N2C4CCC2CN(C)C4)CC1c1cc(OC)ccc1-3 (stereo not shown) [drawing 52]	–	6.30 to 9.00	6.30 to 9.00
